Assay [1] has as its target T1, Gst-Rad23 (Saccharomyces cerevisiae, UniProt P32628).
T1 construct: made in house
T1 sequence (P32628 1-398): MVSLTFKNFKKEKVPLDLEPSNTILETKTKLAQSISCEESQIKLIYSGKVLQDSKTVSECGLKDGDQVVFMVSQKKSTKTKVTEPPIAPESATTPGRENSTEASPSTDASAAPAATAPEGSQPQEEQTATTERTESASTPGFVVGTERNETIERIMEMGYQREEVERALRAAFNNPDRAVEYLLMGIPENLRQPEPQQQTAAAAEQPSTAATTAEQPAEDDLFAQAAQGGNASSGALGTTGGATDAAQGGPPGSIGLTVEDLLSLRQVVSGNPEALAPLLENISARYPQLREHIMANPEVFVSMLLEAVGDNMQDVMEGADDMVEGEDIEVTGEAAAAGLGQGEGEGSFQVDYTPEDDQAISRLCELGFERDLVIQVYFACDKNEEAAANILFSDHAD
Briefly: Native gel mobility shift of receptor protein. The format is binding. The protocol:
(§1) FIG. 2. […] (A) Degradation of UbSic1. Purified 26S proteasomes were preincubated in the presence or absence of test compounds. UbSic1 was then added, and degradation assayed as described (6). Py mock refers to the pyridine solvent in which C23 was dissolved which was marginally inhibitory, unlike the 50% DMSO vehicle used for other test compounds. (B) Deubiquitination of UbSic1. […] UbSic1 was then added, and deubiquitination was assayed as described (6). (C) Titration curve with varying concentrations of C92 to determine half-maximal inhibition of deubiquitination. (D) C92 inhibits binding of UbSic1 to 26S proteasomes. Purified 26S proteasomes immobilized on anti-Flag beads were incubated with UbSic1 in the presence or absence of C92 as described (6). Following binding, beads were washed and analyzed by immunoblotting with anti-Sic1 polyclonal serum. (E) Binding of UbSic1 to the polyUb binding proteins Rpn10 and Rad23 is inhibited by C92. Recombinant Gst-Rpn10 and Gst-Rad23 (1 μg each) were immobilized on glutathione sepharose beads and then incubated with UbSic1 in the presence or absence of C92. Following binding, beads were washed and analyzed by immunoblotting. (F) C92 interacts with multiUb chains. Equivalent amounts (5 μg) of purified Gst, Gst-fusion protein or multiUb chains were incubated with C92 or C1 before being loaded on a 5% native polyacryamide gel. […]

The target of assay [2] is T1, Gst-Rad23. Briefly: Binding of UbSic1 to Gst-Rad23 on glutathione sepharose beads. The procedure: as §1, with “chains.” for “chains. Equivalent amounts (5 μg) of purified Gst, Gst-fusion protein or multiUb chains were incubated with C92 or C1 before being loaded on a 5% native polyacryamide gel.”
Recombinant Gst-Rpn10 and Gst-Rad23 were immobilized on glutathione sepharose beads. […] Aliquots were analyzed by immunoblotting.

A further assay has as its system T2, 26S proteasomes.
T2 construct: IC50, deubiquitination of UbSic1; other: titration, epoxomicin-treated proteasomes; other: 5 μM C92
Briefly: Binding of UbSic1 to immobilized 26S proteasomes. Further details: species or system S. cerevisiae. The conditions noted are these: 5 μM C92. The procedure:
as §1, with “Recombinant Gst-Rpn10 and Gst-Rad23 (1 μg each) were immobilized on glutathione sepharose beads and then incubated with UbSic1 in the presence or absence of C92.” left out, “immunoblotting.” for “immunoblotting. (F) C92 interacts with multiUb chains. Equivalent amounts (5 μg) of purified Gst, Gst-fusion protein or multiUb chains were incubated with C92 or C1 before being loaded on a 5% native polyacryamide gel.”
26S proteasomes were immunoprecipitated with anti-Flag resin from tagged and untagged control strains and incubated with 1 mM phenanthroline, 2.5 uM Ub-aldehyde, and 100 μM MG132 at 4° C. for 45 min. […] Washed beads were resuspended in 2×SDS sample buffer and aliquots analyzed by immunoblotting with anti-Sic1.

Molecules are shown by their SMILES.

For the compound `O=C(Nc1ccc(/C=C/c2ccc(NC(=O)c3cc(S(=O)(=O)O)c4cccnc4c3O)cc2S(=O)(=O)O)c(S(=O)(=O)O)c1)c1cc(S(=O)(=O)O)c2cccnc2c1O` [Compound 92], on Gst-Rad23 [1], the “native gel mobility of Gst-Rad23” value is listed as “not Gst-Rpn10 or Gst-Rad23, was altered”. Besides, at Gst-Rad23 [2], the “inhibition of binding of UbSic1 to Rad23” value is listed as “abolished binding”. Moreover, in the assay on 26S proteasomes, the “inhibition of binding of UbSic1 to 26S proteasomes” value is listed as “strongly inhibited binding”.
